# Reference: patent US4105766A, “4,5-Dihydro-5-oxopyrazolo[1,5-a]quinazoline-3-carboxylic acid derivatives” (Sterling Drug Inc., priority 1977, dated 1978)
# Columns and labels:
# [1] = system: passive cutaneous anaphylaxis; experiment: passive cutaneous anaphylaxis test in rats (anti-allergy); assay type: in vivo; details: for R (ratio, passive cutaneous anaphylaxis) / ED50 / inhibition in vivo at 100 mg/kg / % Inhibition (passive cutaneous anaphylaxis): rats; for R (ratio, passive cutaneous anaphylaxis): R 1.0 to 2.0 inactive, 2.0 to 4.0 weakly active, 4.0 to 8.0 moderately active, >8.0 strongly active; for ED50 / inhibition in vivo at 100 mg/kg: Rattus norvegicus, po; for ED50: passive cutaneous anaphylaxis, read-out: Average Effective Dose50 (AED50); for inhibition in vivo at 100 mg/kg / % Inhibition (passive cutaneous anaphylaxis): standard dose of 100 mg./kg. (p.o.)
# Description: (1) The inhibition of carrageenin-induced foot edema test essentially described by Winter et al., Proc. Soc. Exp. Biol. and Med. 111, 544 (1962) as modified by Van Arman et al., J. Pharmacol. Exptl. Therap. 150, 328 (1965) and (2) a modification of the inhibition of adjuvant-induced arthritis test described by Pierson, J. Chronic Diseases 16, 863 (1963) and Glenn et al., Am. J. Vet. Res. 26, 1180 (1965), which were used to establish the anti-inflammatory activities of the compounds; and the passive cutaneous anaphylaxis test described by Mielens et al., Int. Arch. Allergy Appl. Immunol. 47, 633-649 (1974) which was used to establish the anti-allergy activity of the compounds.
# Results are expressed either in terms of % Inhibition at a standard dose of 100 mg./kg. (p.o.), as an Average Effective Dose50 (AED50), or as a ratio, R, where: [formula]
# [2] = system: carrageenin-induced foot edema; experiment: carrageenin-edema test (CE), inhibition of carrageenin-induced foot edema in rats; assay type: in vivo; details: Rattus norvegicus, read-out: % Inhibition C.E.; for inhibition in vivo at 324 µmol/kg: dose .324 mmole/kg.; for inhibition in vivo at 80 µmol/kg: dose .08 mmole/kg.
# Method: (1) The inhibition of carrageenin-induced foot edema test essentially described by Winter et al., Proc. Soc. […] Therap. […] J. Vet. […] Arch. Allergy Appl. Immunol.
# Here, and elsewhere in other tables which follow, compounds are identified by the Example number above where their preparations are recorded. For purposes of comparison, data are also given for the reference compound 4,5-dihydro-5-oxopyrazolo[1,5-a]quinazoline-3-carboxylic acid disclosed by Wright, ibid., identified here and elsewhere in the tables which follow as "Ref.".
# [3] = system: adjuvant-induced arthritis; experiment: adjuvant arthritis test (AA), inhibition of adjuvant-induced arthritis in rats; assay type: in vivo; details: Rattus norvegicus; for inhibition in vivo at 80 µmol/kg: dose .08 mmole/kg.; for inhibition in vivo at 324 µmol/kg: dose .324 mmole/kg.; for inhibition in vivo at 20 µmol/kg: dose .02 mmole/kg.
# [4] = system: Entamoeba criceti; experiment: amoebacidal test in naturally infected hamsters; assay type: in vivo, Entamoeba criceti (in hamsters)
# Method: Anti-parasitic activity of the compounds was shown by the following test procedures. Amoebacidal activity was shown in a test in which 100 or more female hamsters (Sprague-Dawley) weighing between 90 and 130 g. were individually weighed and sorted into groups of five animals each averaging either 100 ± 10 g. or 120 ± 10g. The test compounds (at least 200 mg.) and a reference standard, N,N'-(phenylenedimethylene)-bis[α,α-dichloro-N-(2-ethoxyethyl)acetamide] (FALMONOX®), were dissolved or suspended in 10 percent gelatin. The test compounds and the reference standard were administered to the naturally infected hamsters intragastrically via syringe in equally subdivided doses of 0.5 ml. […] On the fourth day each of the test animals and the five hamsters receiving the reference drug, as well as non-medicated infected control animals, were killed and a portion of the mucus from the wall of the cecum was mixed in a drop of 0.85% sodium chloride. The preparation was examined under low power (100 ×) of a compound microscope for the presence of motile trophozoites of Entamoeba criceti, and when a preparation was determined to be free from trophozoites, a second specimen was taken from another part of the cecum of the same animal and thoroughly examined before the animal was declared cleared of amoebas. […] Results were recorded as a fraction: number of hamsters cleared/number of hamsters treated.
# (§1) Results obtained in amoebacidal and trypanosomicidal tests on the compounds of the invention against E. criceti and T. brucei, respectively, are given in the table below. Results are expressed as a ratio: Number of Animals Cleared/Total Test Animals.
# [5] = system: Trypanosoma brucei; experiment: trypanosomicidal test in infected mice; assay type: in vivo, Trypanosoma brucei (in mice)
# Method: Trypanosomicidal activity of the compounds of the invention was determined in a test procedure in which albino female mice (Taconic Farms) weighing 20± 2 g. were intraperitoneally injected 3 days prior to initial medication with 0.2 ml. of an inoculum containing 500 Trypanosoma brucei organisms in 0.85% sterile saline. Blood for infecting purposes was obtained via cardiac puncture of a donor mouse previously determined to have a high parasitemia. Test medications to groups of five mice were started 3 days after infection at a time when the animals had begun to develop a rising blood parasitemia. […] Groups of 10 non-medicated infected control mice and five animals medicated with the reference compound LAMPIT® (tetrahydro-3-methyl-4-[(5-nitrofurfurylidene)amino]-2H-1,4-thiazine-1,1-dioxide) were included in each screening test. The test system is based on the survival of animals medicated with the test compound, and those mice alive at the end of 28 days post-infection were recorded as cured. (Non-medicated infected control mice rarely succumb later than 5 to 6 days post-innoculation with T. brucei). A compound was considered active if at least two of five animals survived until the termination of a 28 day post-infection holding period.
# as §1
# [6] = dose 200 mg./kg. p.o. 2×/day × 4
smiles,measurement,setting,value
"Cn1c(=O)c2ccccc2n2ncc(C(=O)OCOC(=O)C(C)(C)C)c12 [Example 9, pivaloyloxymethyl 4-methyl-4,5-dihydro-5-oxopyrazolo[1,5-a]quinazoline-3-carboxylate]","R (ratio, passive cutaneous anaphylaxis)",[1],6.7
CCn1c(=O)c2ccccc2n2ncc(C(=O)O)c12 [Example 7A],ED50,[1],12 mg/kg
same,inhibition in vivo at 100 mg/kg,[1],81%
same,inhibition in vivo at 324 µmol/kg,[2],33%
same,inhibition in vivo at 80 µmol/kg,[3],27%
CCOC(=O)c1cnn2c3ccc(F)cc3c(=O)n(C)c12 [Example 2K],"R (ratio, passive cutaneous anaphylaxis)",[1],3.0
CCOC(=O)c1cnn2c3ccc(Cl)cc3c(=O)n(C)c12 [Example 2H],inhibition in vivo at 100 mg/kg,[1],32%
same,"No. Cleared/No. Tested, Amoeba",[4]; dose 100 mg./kg.,2/4
Cc1ccc2c(=O)[nH]c3c(C(=O)O)cnn3c2c1 [Example 7G],ED50,[1],~15 mg/kg
CCOC(=O)c1cnn2c1[nH]c(=O)c1cc(C)ccc12 [Example 1A],inhibition in vivo at 100 mg/kg,[1],63%
CCOC(=O)c1cnn2c1[nH]c(=O)c1cc(F)ccc12 [Example 1E],% Inhibition (passive cutaneous anaphylaxis),[1],Inac.
C=C(C)Cn1c(=O)c2ccccc2n2ncc(C(=O)O)c12 [Example 7D],"R (ratio, passive cutaneous anaphylaxis)",[1],4.6
same,inhibition in vivo at 80 µmol/kg,[2],15%
same,inhibition in vivo at 324 µmol/kg,[2],24%
same,inhibition in vivo at 324 µmol/kg,[3],43%
"O=C(O)c1cnn2c1[nH]c(=O)c1ccccc12 [Ref., 4,5-dihydro-5-oxopyrazolo[1,5-a]quinazoline-3-carboxylic acid]",ED50,[1],2 to 15 mg/kg
same,inhibition in vivo at 100 mg/kg,[1],62%
same,anti-allergic activity (in words),"[1]; rat, in vivo",possesses anti-allergic activity
same,inhibition in vivo at 80 µmol/kg,[2],0%
same,inhibition in vivo at 324 µmol/kg,[2],7%
same,inhibition in vivo at 20 µmol/kg,[3],26%
same,inhibition in vivo at 80 µmol/kg,[3],31%
same,inhibition in vivo at 324 µmol/kg,[3],10%
"C=CCn1c(=O)c2ccccc2n2ncc(C(=O)O)c12 [Example 8, sodium 4-(2-propenyl)-4,5-dihydro-5-oxopyrazolo[1,5-a]quinazoline-3-carboxylate]",inhibition in vivo at 90 µmol/kg,[2]; dose .09 mmole/kg.,20%
same,inhibition in vivo at 360 µmol/kg,[2]; dose .36 mmole/kg.,31%
same,inhibition in vivo at 20 µmol/kg,[3],29%
same,inhibition in vivo at 80 µmol/kg,[3],47%
same,inhibition in vivo at 324 µmol/kg,[3],80%
O=C(O)c1cnn2c3ccccc3c(=O)n(CC3CC3)c12 [Example 7C],"R (ratio, passive cutaneous anaphylaxis)",[1],6.5
same,inhibition in vivo at 80 µmol/kg,[2],25%
same,inhibition in vivo at 324 µmol/kg,[2],33%
same,inhibition in vivo at 324 µmol/kg,[3],74%
Cn1c(=O)c2ccc(Cl)cc2n2ncc(C(=O)O)c12 [Example 7M],"No. Cleared/No. Tested, Tryp.","[5]; dose 200 mg./kg. p.o., i.p.",5/5
same,inhibition in vivo at 100 mg/kg,[1],56%
CCOC(=O)c1cnn2c1[nH]c(=O)c1ccc(C)cc12 [Example 1B],% Inhibition (passive cutaneous anaphylaxis),[1],Inac.
CCOC(=O)c1cnn2c1[nH]c(=O)c1cc(Cl)ccc12 [Example 1C],inhibition in vivo at 100 mg/kg,[1],48%
O=C(O)c1cnn2c1[nH]c(=O)c1cc(Cl)ccc12 [Example 7J],ED50,[1],5 to 10 mg/kg
same,inhibition in vivo at 100 mg/kg,[1],92%
Cc1ccc2c(c1)c(=O)[nH]c1c(C(=O)O)cnn12 [Example 7F],inhibition in vivo at 100 mg/kg,[1],65%
"CCOC(=O)c1cnn2c3ccccc3c(=O)n(C)c12 [Example 2, ethyl 4-methyl-4,5-dihydro-5-oxopyrazolo[1,5-a]quinazoline-3-carboxylate]","No. Cleared/No. Tested, Tryp.","[5]; dose 50 mg./kg. p.o., i.p.",0/5
same,"No. Cleared/No. Tested, Tryp.","[5]; dose 200 mg./kg. p.o., i.p.",2/5
"Cn1c(=O)c2ccccc2n2ncc(C(=O)O)c12 [Example 7, 4-methyl-4,5-dihydro-5-oxopyrazolo[1,5-a]quinazoline-3-carboxylic acid]","No. Cleared/No. Tested, Tryp.",[5]; dose 100 mg./kg. p.o. 2×/day × 4,0/5
same,"No. Cleared/No. Tested, Tryp.",[5]; [6],5/5
same,inhibition in vivo at 100 mg/kg,[1],68%
same,inhibition in vivo at 324 µmol/kg,[2],11%
same,inhibition in vivo at 80 µmol/kg,[3],16%
same,inhibition in vivo at 324 µmol/kg,[3],39%
Cn1c(=O)c2cc([N+](=O)[O-])ccc2n2ncc(C(=O)O)c12 [Example 7S],ED50,[1],37 mg/kg
"C=CCn1c(=O)c2ccccc2n2ncc(C(=O)O)c12 [Example 7B, 4-(2-propenyl)-4,5-dihydro-5-oxopyrazolo[1,5-a]quinazoline-3-carboxylic acid]",inhibition in vivo at 100 mg/kg,[1],40%
same,inhibition in vivo at 80 µmol/kg,[2],38%
same,inhibition in vivo at 324 µmol/kg,[2],73%
same,inhibition in vivo at 20 µmol/kg,[3],18%
same,inhibition in vivo at 80 µmol/kg,[3],34%
same,inhibition in vivo at 324 µmol/kg,[3],84%
"CCOC(=O)c1cnn2c3ccc([N+](=O)[O-])cc3c(=O)n(C)c12 [Example 4, ethyl 4-methyl-7-nitro-4,5-dihydro-5-oxopyrazolo[1,5-a]quinazoline-3-carboxylate]","No. Cleared/No. Tested, Amoeba",[4]; dose 100 mg./kg.,2/4
CC(C)=CCn1c(=O)c2ccccc2n2ncc(C(=O)O)c12 [Example 7E],"R (ratio, passive cutaneous anaphylaxis)",[1],3.8
same,inhibition in vivo at 80 µmol/kg,[2],3%
same,inhibition in vivo at 324 µmol/kg,[2],4%
same,inhibition in vivo at 324 µmol/kg,[3],34%
Cn1c(=O)c2cc(Br)ccc2n2ncc(C(=O)O)c12 [Example 7R],inhibition in vivo at 100 mg/kg,[1],63%
"Cn1c(=O)c2cc(N)ccc2n2ncc(C(=O)O)c12 [Example 10, 7-amino-4-methyl-4,5-dihydro-5-oxopyrazolo[1,5-a]quinazoline-3-carboxylic acid]","No. Cleared/No. Tested, Amoeba",[4]; dose 50 mg./kg.,0/5
same,"No. Cleared/No. Tested, Amoeba",[4]; dose 100 mg./kg.,5/5
Cc1ccc2c(c1)c(=O)n(C)c1c(C(=O)O)cnn21 [Example 7H],"No. Cleared/No. Tested, Tryp.",[5]; [6],10/10
same,"No. Cleared/No. Tested, Tryp.","[5]; dose 200 mg./kg. p.o., i.p.",4/5
same,ED50,[1],34 mg/kg
same,inhibition in vivo at 100 mg/kg,[1],73%
C=CCn1c(=O)c2cc(F)ccc2n2ncc(C(=O)O)c12 [Example 7Q],inhibition in vivo at 80 µmol/kg,[2],0%
same,inhibition in vivo at 324 µmol/kg,[2],4%
same,inhibition in vivo at 324 µmol/kg,[3],72%
Cn1c(=O)c2cc(Cl)ccc2n2ncc(C(=O)O)c12 [Example 7K],"No. Cleared/No. Tested, Tryp.","[5]; dose 200 mg./kg. p.o., i.p.",2/4
same,ED50,[1],9 mg/kg
CCOC(=O)c1cnn2c3cc(C)ccc3c(=O)n(C)c12 [Example 2G],inhibition in vivo at 100 mg/kg,[1],46%
